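Growth conditions: 96-well plates. Treatment: test compound, 48 hours, 5 concentrations. Analysis: linear interpolation between bracketing concentrations; unreached endpoints set to highest concentration. GI50: concentration for 50% inhibition of growth. TGI: total growth inhibition.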
Assays:
Experiment in all cases: NCI-60 cell line screen, 48 h
LOX IMVI melanoma = tested on: LOX IMVI melanoma
HCC-2998 colon = tested on: HCC-2998 colon
SK-MEL-2 melanoma = tested on: SK-MEL-2 melanoma
NCI-H226 lung = tested on: NCI-H226 lung
MOLT-4 leukemia = tested on: MOLT-4 leukemia
HOP-62 NSCLC = tested on: HOP-62 NSCLC
DU-145 prostate = tested on: DU-145 prostate
SF-268 CNS = tested on: SF-268 CNS
SK-MEL-5 melanoma = tested on: SK-MEL-5 melanoma
SN12C renal = tested on: SN12C renal
UO-31 renal = tested on: UO-31 renal
SNB-19 CNS = tested on: SNB-19 CNS
SW-620 colon = tested on: SW-620 colon
ACHN renal = tested on: ACHN renal
U251 CNS = tested on: U251 CNS
CCRF-CEM leukemia = tested on: CCRF-CEM leukemia
UACC-62 melanoma = tested on: UACC-62 melanoma
NCI-H460 lung = tested on: NCI-H460 lung
A498 renal = tested on: A498 renal
786-0 renal = tested on: 786-0 renal
KM12 colon = tested on: KM12 colon
HL-60(TB) leukemia = tested on: HL-60(TB) leukemia
HCT-15 colon = tested on: HCT-15 colon
SK-OV-3 ovarian = tested on: SK-OV-3 ovarian
UACC-257 melanoma = tested on: UACC-257 melanoma
COLO 205 colon = tested on: COLO 205 colon
NCI/ADR-RES ovarian = tested on: NCI/ADR-RES ovarian
SF-539 CNS = tested on: SF-539 CNS
SK-MEL-28 melanoma = tested on: SK-MEL-28 melanoma
OVCAR-4 ovarian = tested on: OVCAR-4 ovarian
MALME-3M melanoma = tested on: MALME-3M melanoma
RPMI-8226 leukemia = tested on: RPMI-8226 leukemia
MDA-MB-435 = tested on: MDA-MB-435
T-47D breast = tested on: T-47D breast
SR leukemia = tested on: SR leukemia
OVCAR-3 ovarian = tested on: OVCAR-3 ovarian
MCF7 breast = tested on: MCF7 breast
OVCAR-5 ovarian = tested on: OVCAR-5 ovarian
OVCAR-8 ovarian = tested on: OVCAR-8 ovarian
HS 578T breast = tested on: HS 578T breast
PC-3 prostate = tested on: PC-3 prostate
HCT-116 colon = tested on: HCT-116 colon
CAKI-1 renal = tested on: CAKI-1 renal
A549 NSCLC = tested on: A549 NSCLC
MDA-MB-231 breast = tested on: MDA-MB-231 breast
TK-10 renal = tested on: TK-10 renal
HT29 colon = tested on: HT29 colon
BT-549 breast = tested on: BT-549 breast
SF-295 CNS = tested on: SF-295 CNS
HOP-92 NSCLC = tested on: HOP-92 NSCLC
RXF 393 renal = tested on: RXF 393 renal
SNB-75 CNS = tested on: SNB-75 CNS
IGROV1 ovarian = tested on: IGROV1 ovarian
NCI-H23 lung = tested on: NCI-H23 lung
K-562 leukemia = tested on: K-562 leukemia
M14 melanoma = tested on: M14 melanoma
EKVX NSCLC = tested on: EKVX NSCLC

Q: Which results are given for `Oc1ccccc1/C=N/Nc1nc(N/N=C/c2ccccc2O)nc(N2CCOCC2)n1`?
A: GI50 (LOX IMVI melanoma): 0.276 µM; TGI (LOX IMVI melanoma): 0.873 µM; GI50 (HCC-2998 colon): 7.65 µM; TGI (HCC-2998 colon): > 100 µM; GI50 (SK-MEL-2 melanoma): 6.06 µM; TGI (SK-MEL-2 melanoma): > 100 µM; GI50 (NCI-H226 lung): 3.92 µM; TGI (NCI-H226 lung): 20.4 µM; GI50 (MOLT-4 leukemia): 1.55 µM; TGI (MOLT-4 leukemia): > 100 µM; GI50 (HOP-62 NSCLC): 3.51 µM; TGI (HOP-62 NSCLC): 23 µM; GI50 (DU-145 prostate): 6.09 µM; TGI (DU-145 prostate): > 100 µM; GI50 (SF-268 CNS): 16.9 µM; TGI (SF-268 CNS): > 100 µM; GI50 (SK-MEL-5 melanoma): 5.86 µM; TGI (SK-MEL-5 melanoma): > 100 µM; GI50 (SN12C renal): 18.3 µM; TGI (SN12C renal): > 100 µM; GI50 (UO-31 renal): 0.372 µM; TGI (UO-31 renal): 18.7 µM; GI50 (SNB-19 CNS): 3.14 µM; TGI (SNB-19 CNS): 14.9 µM; GI50 (SW-620 colon): 1.78 µM; TGI (SW-620 colon): 23.4 µM; GI50 (ACHN renal): 1.58 µM; TGI (ACHN renal): 44.9 µM; GI50 (U251 CNS): 3.06 µM; TGI (U251 CNS): 22.3 µM; GI50 (CCRF-CEM leukemia): 0.537 µM; TGI (CCRF-CEM leukemia): > 100 µM; GI50 (UACC-62 melanoma): 24.5 µM; TGI (UACC-62 melanoma): > 100 µM; GI50 (NCI-H460 lung): 2.3 µM; TGI (NCI-H460 lung): 17.4 µM; GI50 (A498 renal): 1.09 µM; TGI (A498 renal): 8.58 µM; GI50 (786-0 renal): 0.709 µM; TGI (786-0 renal): 15.3 µM; GI50 (KM12 colon): 33.2 µM; TGI (KM12 colon): > 100 µM; GI50 (HL-60(TB) leukemia): 0.193 µM; TGI (HL-60(TB) leukemia): > 100 µM; GI50 (HCT-15 colon): 0.241 µM; TGI (HCT-15 colon): 16.2 µM; GI50 (SK-OV-3 ovarian): 3.7 µM; TGI (SK-OV-3 ovarian): 13.8 µM; GI50 (UACC-257 melanoma): 6.53 µM; TGI (UACC-257 melanoma): > 100 µM; GI50 (COLO 205 colon): 5.53 µM; TGI (COLO 205 colon): > 100 µM; GI50 (NCI/ADR-RES ovarian): 0.685 µM; TGI (NCI/ADR-RES ovarian): 9.37 µM; GI50 (SF-539 CNS): 7.29 µM; TGI (SF-539 CNS): > 100 µM; GI50 (SK-MEL-28 melanoma): 3.2 µM; TGI (SK-MEL-28 melanoma): 49.9 µM; GI50 (OVCAR-4 ovarian): 2.48 µM; TGI (OVCAR-4 ovarian): 7.56 µM; GI50 (MALME-3M melanoma): 8.69 µM; TGI (MALME-3M melanoma): > 100 µM; GI50 (RPMI-8226 leukemia): 2.78 µM; TGI (RPMI-8226 leukemia): > 100 µM; GI50 (MDA-MB-435): 9.53 µM; TGI (MDA-MB-435): > 100 µM; GI50 (T-47D breast): 3.34 µM; TGI (T-47D breast): > 100 µM; GI50 (SR leukemia): 0.322 µM; TGI (SR leukemia): > 100 µM; GI50 (OVCAR-3 ovarian): 3.42 µM; TGI (OVCAR-3 ovarian): > 100 µM; GI50 (MCF7 breast): 2.39 µM; TGI (MCF7 breast): > 100 µM; GI50 (OVCAR-5 ovarian): 6.41 µM; TGI (OVCAR-5 ovarian): > 100 µM; GI50 (OVCAR-8 ovarian): 3.75 µM; TGI (OVCAR-8 ovarian): 34.5 µM; GI50 (HS 578T breast): 3.24 µM; TGI (HS 578T breast): 44.1 µM; GI50 (PC-3 prostate): 3.61 µM; TGI (PC-3 prostate): > 100 µM; GI50 (HCT-116 colon): 0.823 µM; TGI (HCT-116 colon): > 100 µM; GI50 (CAKI-1 renal): 4.52 µM; TGI (CAKI-1 renal): 46.5 µM; GI50 (A549 NSCLC): 2.88 µM; TGI (A549 NSCLC): 52.2 µM; GI50 (MDA-MB-231 breast): 2.42 µM; TGI (MDA-MB-231 breast): 30.9 µM; GI50 (TK-10 renal): 44.9 µM; TGI (TK-10 renal): > 100 µM; GI50 (HT29 colon): 5.89 µM; TGI (HT29 colon): > 100 µM; GI50 (BT-549 breast): 5.19 µM; TGI (BT-549 breast): > 100 µM; GI50 (SF-295 CNS): 7.67 µM; TGI (SF-295 CNS): > 100 µM; GI50 (HOP-92 NSCLC): 1.65 µM; TGI (HOP-92 NSCLC): 6.01 µM; GI50 (RXF 393 renal): 0.272 µM; TGI (RXF 393 renal): 2.45 µM; GI50 (SNB-75 CNS): 1.82 µM; TGI (SNB-75 CNS): 5.26 µM; GI50 (IGROV1 ovarian): 0.966 µM; TGI (IGROV1 ovarian): > 100 µM; GI50 (NCI-H23 lung): 4.31 µM; TGI (NCI-H23 lung): 20.1 µM; GI50 (K-562 leukemia): 0.683 µM; TGI (K-562 leukemia): > 100 µM; GI50 (M14 melanoma): 3.22 µM; TGI (M14 melanoma): > 100 µM; GI50 (EKVX NSCLC): 3.28 µM; TGI (EKVX NSCLC): 32 µM

— PubChem BioAssay (NCI)
